According to patent US9193728B2, “Fused tetracyclic pyrido [4,3-B] indole and pyrido [3,4-B] indole derivatives and methods of use” (Medivation Technologies, Inc., priority 2010, dated 2015):

Tests used:
[1] = biological target: T1, human recombinant serotonin (5-Hydroxytryptamine) 5-HT6 receptor (Homo sapiens, UniProt P50406); assay: Serotonin 5-HT6 radioligand binding ([3H]LSD); details: compound at 0.1 μM; read-out: Serotonin (0.1 μM) 5-HT6, percentage inhibition of ligand binding
T1 construct: expressed in transfected cells; host or cells: HeLa
T1 sequence (P50406 whole entry): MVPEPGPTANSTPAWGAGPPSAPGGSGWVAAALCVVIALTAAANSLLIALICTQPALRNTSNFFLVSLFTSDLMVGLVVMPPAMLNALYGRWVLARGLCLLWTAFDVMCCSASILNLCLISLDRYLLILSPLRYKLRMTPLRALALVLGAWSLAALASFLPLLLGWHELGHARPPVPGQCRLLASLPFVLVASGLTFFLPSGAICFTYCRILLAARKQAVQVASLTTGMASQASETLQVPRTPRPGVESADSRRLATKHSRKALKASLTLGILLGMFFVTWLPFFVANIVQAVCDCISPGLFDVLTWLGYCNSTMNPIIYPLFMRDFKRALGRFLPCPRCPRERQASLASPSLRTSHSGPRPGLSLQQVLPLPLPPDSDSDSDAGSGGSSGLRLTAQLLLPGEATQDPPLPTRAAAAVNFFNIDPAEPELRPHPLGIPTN
Description: To evaluate in radioligand binding assays the activity of compounds of the invention, human recombinant serotonin (5-Hydroxytryptamine) 5-HT6 receptor expressed in human HeLa cells (Monsma, F. Jr. et al, Mol. Pharmacol. 43:320, 1993) in a modified Tris-HCl buffer (50 mM Tris-HCl, pH 7.4, 150 mM NaCl, 2 mM Ascorbic Acid, 0.001% BSA) was used. Compounds of the invention were incubated with 1.5 nM [3H]Lysergic acid diethylamide (LSD) for 120 min. at 37° C. Non-specific binding was estimated in the presence of 5 μM Serotonin (5-HT). Receptor proteins were filtered and washed, the filters were then counted to determine [3H]LSD specifically bound. Compounds were screened at 1 μM or lower, using 1% DMSO as vehicle. Biochemical assay results are presented as the percent inhibition of specific binding in Table 4.

[2] = biological target: T2, human recombinant histamine H1 receptor (Homo sapiens, UniProt P35367); assay: Histamine H1 radioligand binding ([3H]Pyrilamine); details: compound at 1 μM; 1.2 nM [3H]Pyrilamine; read-out: Histamine Binding (1 μM) H1, percentage inhibition
T2 construct: expressed in transfected cells; host or cells: CHO-K1
T2 sequence (P35367 whole entry): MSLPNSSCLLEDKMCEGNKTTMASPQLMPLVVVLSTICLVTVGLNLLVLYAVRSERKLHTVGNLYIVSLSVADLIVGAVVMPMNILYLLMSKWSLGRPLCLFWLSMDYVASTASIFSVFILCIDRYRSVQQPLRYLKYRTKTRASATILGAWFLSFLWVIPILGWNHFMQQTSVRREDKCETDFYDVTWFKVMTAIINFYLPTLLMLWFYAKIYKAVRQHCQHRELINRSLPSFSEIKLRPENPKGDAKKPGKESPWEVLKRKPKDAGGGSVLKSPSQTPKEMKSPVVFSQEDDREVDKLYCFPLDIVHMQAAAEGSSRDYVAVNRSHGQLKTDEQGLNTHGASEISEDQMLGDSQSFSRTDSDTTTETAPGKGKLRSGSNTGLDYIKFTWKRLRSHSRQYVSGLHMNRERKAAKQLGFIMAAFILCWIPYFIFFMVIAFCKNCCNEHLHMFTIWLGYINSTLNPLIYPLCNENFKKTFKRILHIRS
Description: To evaluate in radioligand binding assays the activity of compounds of the invention, human recombinant histamine H1 receptor expressed in Chinese hamster ovary (CHO) K1 cells (De Backer, M. et al, Biochem. Biophys. Res. Comm. 197(3):1601, 1993) in a modified Tris-HCl buffer (50 mM Tris-HCl, pH 7.4, 2 mM MgCl2, 100 mM NaCl, 250 mM Sucrose) was used. Compounds of the invention were incubated with 1.2 nM [^3H]Pyrilamine for 180 min. at 25° C. Non-specific binding was estimated in the presence of 1 μM Pyrilamine. Receptor proteins were filtered and washed, the filters were then counted to determine [^3H]Pyrilamine specifically bound. Compounds were screened at 1 μM or lower, using 1% DMSO as vehicle. Biochemical assay results are presented as the percent inhibition of specific binding in Table 2.

[3] = biological target: T3, human recombinant dopamine D2L receptor (Homo sapiens, UniProt P14416); assay: Dopamine D2L radioligand binding ([3H]Spiperone); details: compound at 1 μM; read-out: Dopamine (1 μM) D2L, percentage inhibition of ligand binding
T3 construct: expressed in transfected cells; host or cells: CHO
T3 sequence (P14416 whole entry): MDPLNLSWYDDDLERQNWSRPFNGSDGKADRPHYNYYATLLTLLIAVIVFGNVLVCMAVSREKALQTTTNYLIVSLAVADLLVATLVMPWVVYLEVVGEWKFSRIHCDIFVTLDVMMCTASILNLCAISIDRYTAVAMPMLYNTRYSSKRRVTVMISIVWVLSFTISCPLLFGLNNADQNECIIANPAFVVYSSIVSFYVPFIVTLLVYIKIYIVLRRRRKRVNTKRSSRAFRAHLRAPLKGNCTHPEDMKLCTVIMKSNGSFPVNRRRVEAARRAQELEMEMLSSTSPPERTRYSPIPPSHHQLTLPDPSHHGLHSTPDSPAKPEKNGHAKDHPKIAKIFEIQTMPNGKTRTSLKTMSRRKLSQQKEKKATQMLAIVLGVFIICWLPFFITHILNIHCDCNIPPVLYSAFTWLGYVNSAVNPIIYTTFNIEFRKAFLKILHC
Description: To evaluate in radioligand binding assays the activity of compounds of the invention, human recombinant dopamine D2L receptor expressed in Chinese hamster ovary (CHO) cells (Grandy, D. et al, Proc. Natl. Acad. Sci. USA. 86:9762, 1989; Hayes, G. et al, Mol. Endocrinol. 6:920, 1992) in a modified Tris-HCl buffer (50 mM Tris-HCl, pH 7.4, 1.4 mM Ascorbic Acid, 0.001% BSA, 150 mM NaCl) was used. Compounds of the invention were incubated with 0.16 nM [^3H]Spiperone for 120 min. at 25° C. Non-specific binding was estimated in the presence of 10 μM Haloperidol. Receptor proteins were filtered and washed, the filters were then counted to determine [^3H]Spiperone specifically bound. Compounds were screened at 1 μM or lower, using 1% DMSO as vehicle. Biochemical assay results are presented as the percent inhibition of specific binding in Table 3.

[4] = biological target: T4, human recombinant serotonin (5-Hydroxytryptamine) 5-HT2A receptor (Homo sapiens, UniProt P28223); assay: Serotonin 5-HT2A radioligand binding ([3H]Ketanserin); details: compound at 0.1 μM; read-out: Serotonin (0.1 μM) 5-HT2A, percentage inhibition of ligand binding
T4 construct: expressed in transfected cells; host or cells: CHO-K1
T4 sequence (P28223 whole entry): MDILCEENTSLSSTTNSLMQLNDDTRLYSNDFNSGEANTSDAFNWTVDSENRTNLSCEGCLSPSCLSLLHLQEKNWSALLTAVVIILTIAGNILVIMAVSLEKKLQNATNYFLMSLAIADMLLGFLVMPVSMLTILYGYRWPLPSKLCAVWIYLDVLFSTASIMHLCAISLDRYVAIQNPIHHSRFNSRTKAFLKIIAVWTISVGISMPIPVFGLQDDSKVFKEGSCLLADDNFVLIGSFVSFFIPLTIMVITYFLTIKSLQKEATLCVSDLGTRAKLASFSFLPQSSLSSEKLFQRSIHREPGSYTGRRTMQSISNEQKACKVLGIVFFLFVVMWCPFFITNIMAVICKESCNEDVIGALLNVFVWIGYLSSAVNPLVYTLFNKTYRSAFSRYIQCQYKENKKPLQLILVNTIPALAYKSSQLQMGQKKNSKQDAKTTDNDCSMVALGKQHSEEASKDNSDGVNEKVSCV
Description: To evaluate in radioligand binding assays the activity of compounds of the invention, human recombinant serotonin (5-Hydroxytryptamine) 5-HT2A receptor expressed in Chinese hamster ovary (CHO)-K1 cells (Bonhaus, D. et al, Br. J. Pharmacol. 115:622, 1995; Saucier, C. et al, J. Neurochem. 68:1998, 1997) in a 50 mM Tris-HCl buffer, pH 7.4, was used. Compounds of the invention were incubated with 0.5 nM [^3H]Ketanserin for 60 min. at 25° C. Non-specific binding was estimated in the presence of 1 μM Mianserin. Receptor proteins were filtered and washed, the filters were then counted to determine [^3H]Ketanserin specifically bound. Compounds were screened at 1 μM or lower, using 1% DMSO as vehicle. Biochemical assay results are presented as the percent inhibition of specific binding in Table 4.

[5] = biological target: T5, human recombinant serotonin (5-Hydroxytryptamine) 5-HT7 receptor (Homo sapiens, UniProt P34969); assay: Serotonin 5-HT7 radioligand binding ([3H]LSD); details: compound at 0.1 μM; read-out: Serotonin (0.1 μM) 5-HT7, percentage inhibition of ligand binding
T5 construct: expressed in transfected cells; host or cells: CHO
T5 sequence (P34969 whole entry): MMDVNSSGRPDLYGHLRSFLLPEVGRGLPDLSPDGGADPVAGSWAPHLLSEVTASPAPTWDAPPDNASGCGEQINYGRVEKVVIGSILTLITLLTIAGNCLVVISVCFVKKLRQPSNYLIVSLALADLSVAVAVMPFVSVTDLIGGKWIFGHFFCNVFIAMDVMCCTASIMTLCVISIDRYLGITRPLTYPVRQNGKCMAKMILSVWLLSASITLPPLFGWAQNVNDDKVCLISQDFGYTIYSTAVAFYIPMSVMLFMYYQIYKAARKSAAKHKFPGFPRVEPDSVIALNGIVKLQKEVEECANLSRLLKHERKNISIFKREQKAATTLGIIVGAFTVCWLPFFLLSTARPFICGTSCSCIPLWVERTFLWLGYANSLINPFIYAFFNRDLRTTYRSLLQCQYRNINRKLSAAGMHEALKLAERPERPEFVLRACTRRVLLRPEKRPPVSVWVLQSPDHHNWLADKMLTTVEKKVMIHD
Description: To evaluate in radioligand binding assays the activity of compounds of the invention, human recombinant serotonin (5-Hydroxytryptamine) 5-HT7 receptor expressed in Chinese hamster ovary (CHO) cells (Roth, B. et al, J. Pharmacol. Exp. Ther. 268:1403, 1994; Shen, Y. et al, J. Biol. Chem. 268:18200, 1993) in a modified Tris-HCl buffer (50 mM Tris-HCl, pH 7.4, 10 mM MgCl2, 0.5 mM EDTA) was used. Compounds of invention were incubated with 5.5 nM [^3H]Lysergic acid diethylamide (LSD) for 120 min. at 25° C. Non-specific binding was estimated in the presence of 10 μM Serotonin (5-HT). Receptor proteins were filtered and washed, the filters were then counted to determine [^3H]LSD specifically bound. Compounds were screened at 1 μM or lower, using 1% DMSO as vehicle. Biochemical assay results are presented as the percent inhibition of specific binding in Table 4.

[6] = biological target: T6, human recombinant serotonin (5-Hydroxytryptamine) 5-HT2C receptor (Homo sapiens, UniProt P28335); assay: Serotonin 5-HT2C radioligand binding ([3H]Mesulergine); details: compound at 0.1 μM; read-out: Serotonin (0.1 μM) 5-HT2C, percentage inhibition of ligand binding
T6 construct: expressed in transfected cells; host or cells: CHO-K1
T6 sequence (P28335 33-458): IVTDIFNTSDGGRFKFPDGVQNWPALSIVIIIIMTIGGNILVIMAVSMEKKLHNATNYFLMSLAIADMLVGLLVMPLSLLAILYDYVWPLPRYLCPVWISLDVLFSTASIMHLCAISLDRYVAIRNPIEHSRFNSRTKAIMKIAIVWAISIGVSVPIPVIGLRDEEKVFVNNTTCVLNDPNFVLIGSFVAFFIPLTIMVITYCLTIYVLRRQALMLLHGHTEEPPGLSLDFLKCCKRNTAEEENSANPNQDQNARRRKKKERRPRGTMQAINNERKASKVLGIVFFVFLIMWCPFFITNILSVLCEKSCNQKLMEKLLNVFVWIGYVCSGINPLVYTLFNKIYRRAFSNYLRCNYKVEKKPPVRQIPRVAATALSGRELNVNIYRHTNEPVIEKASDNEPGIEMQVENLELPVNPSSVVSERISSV
Description: To evaluate in radioligand binding assays the activity of compounds of the invention, human recombinant serotonin (5-Hydroxytryptamine) 5-HT2C receptor expressed in Chinese hamster ovary (CHO)-K1 cells (Wolf, W. et al, J. Neurochem. 69:1449, 1997) in a modified Tris-HCl buffer (50 mM Tris-HCl, pH 7.4, 0.1% Ascorbic Acid, 10 μM Pargyline) was used. Compounds of the invention were incubated with 1 nM [^3H]Mesulergine for 60 min. at 25° C. Non-specific binding was estimated in the presence of 1 μM Mianserin. Receptor proteins were filtered and washed, the filters were then counted to determine [^3H]Mesulergine specifically bound. Compounds were screened at 1 μM or lower, using 1% DMSO as vehicle. Biochemical assay results are presented as the percent inhibition of specific binding in Table 4.

Row | SMILES | inhibition at 0.1 µM [1] [%] | inhibition at 1 µM [2] [%] | inhibition at 1 µM [3] [%] | inhibition at 0.1 µM [4] [%] | inhibition at 0.1 µM [5] [%] | inhibition at 0.1 µM [6] [%]
1 | CN1CCc2c(c3cccc4c3n2CC(=O)N4)C1 [Compound 5] | 4 | 5 | 21 | -4 | 4 | 13
2 | CN1CCc2c(c3cccc4c3n2C(c2ccccc2)C(=O)N4)C1 (stereo not drawn) [Compound 6] | -6 | 46 | 41 | 12 | 30 | 7
3 | CN1CCc2c(c3cccc4c3n2CC(c2ccncc2)C4)C1 (stereo not drawn) [Compound 7] | -2 | 92 | 54 | 7 | 10 | -5
4 | CN1CCc2c(c3cccc4c3n2CCC4)C1 [Compound 8] | 9 | 49 | 15 | 30 | 14 | 48
5 | CN1CCc2c(c3cccc4c3n2CCO4)C1 [Compound 9, 8-methyl-1,2,7,8,9,10-hexahydro-[1,4]oxazino[2,3,4-hi]pyrido[4,3-b]indole] | 12 | 31 | 10 | 11 | 2 | 20
6 | CN1CCc2c(c3cccc4c3n2CC(c2ccncc2)S4)C1 (stereo not drawn) [Compound 10] | 23 | 84 | 32 | 23 | 12 | 8
7 | CN1CCc2c(c3cccc4c3n2CCS4)C1 [Compound 11, 8-methyl-1,2,7,8,9,10-hexahydropyrido[4,3-b][1,4]thiazino[2,3,4-hi]indole] | 18 | 39 | 10 | 27 | -8 | 57
8 | Cc1cc2c3c(c1)c1c(n3C(c3ccccc3)C2)CCN(C)C1 (stereo not drawn) [Compound 12] | 59 | 101 | 44 | 90 | 81 | 102
9 | Cc1cc2c3c(c1)c1c(n3CC2)CCN(CCCC(=O)c2ccc(F)cc2)C1 [Compound 13] | 31 | 64 | 91 | 98 | 62 | 93
10 | O=C(CCCN1CCc2c(c3cccc4c3n2CCC4)C1)c1ccc(F)cc1 [Compound 14] | 21 | 78 | 86 | 99 | 58 | 92
11 | Cc1cc2c3c(c1)c1c(n3CC(c3ccccc3)O2)CCN(C)C1 (stereo not drawn) [Compound 15, 5,8-dimethyl-2-phenyl-1,2,7,8,9,10-hexahydro-[1,4]oxazino[2,3,4-hi]pyrido[4,3-b]indole] | 21 | 96 | 76 | 10 | 9 | 4
12 | CN1CCc2c(c3cccc4c3n2CC(c2ccc(F)cc2)C4)C1 (stereo not drawn) [Compound 16] | 57 | 78 | 91 | 40 | 16 | 34
13 | Cc1cc2c3c(c1)c1c(n3CC(c3ccc(F)cc3)=CC2)CCN(C)C1 [Compound 156, (Z)-6-(4-fluorophenyl)-2,11-dimethyl-4,7,9,10,11,12-hexahydroazepino[3,2,1-hi]pyrido[4,3-b]indole] | 62 | 101 | 65 | 98 | 49 | 93
14 | Cc1cc2c3c(c1)c1c(n3CC(c3ccc(F)cc3)CC2)CCN(C)C1 (stereo not drawn) [Compound 157, 6-(4-fluorophenyl)-2,11-dimethyl-4,5,6,7,9,10,11,12-octahydroazepino[3,2,1-hi]pyrido[4,3-b]indole] | 91 | 95 | 83 | 90 | 80 | 96
15 | CN1CCc2c(c3cccc4c3n2CC(=O)N4Cc2ccncc2)C1 [Compound 159] | 4 | 16 | 6 | 53 | 38 | 35
16 | Cc1ccc(C2Cn3c4c(c5cccc2c53)CN(C)CC4)cn1 (stereo not drawn) [Compound 210] | 1 |  |  | 23 | 21 | 
17 | Cc1cc2c(-c3ccccc3)cn3c4c(c(c1)c23)CN(C)CC4 [Compound 211] | 47 |  |  | 50 | 78 | 
